Literature values as cited in patent US11872093B1, “Method of marking lesions” (NoduGloH LLC, priority 2022, dated 2024).

Details: ICG dye marking without use of a coil

Q: Which “persistence of dye effect after marking without a coil” value does the source give for `CC1(C)C(/C=C/C=C/C=C/C=C2\N(CCCCS(=O)(=O)O)c3ccc4ccccc4c3C2(C)C)=[N+](CCCCS(=O)(=O)[O-])c2ccc3ccccc3c21` [ICG dye, Indocyanine Green] here?
A: fade away over several hours
